According to US9056835B2, “LPA2 receptor-specific benzoic acid derivatives” (University of Tennessee Research Foundation, priority 2012, dated 2015):
Read-outs that look alike come from different tables or passages of the source.

Tests used:
[1] = test system: vector- and LPA2-transduced MEF cells; test: Adriamycin-induced apoptosis, DNA fragmentation ELISA; assay type: cell-based, mouse; conditions: GRI977143 10 μM
Description: (§1) Experiments were performed on vector- and LPA2-transduced MEF cells. To measure caspase 3, 7, 8, or 9 activity and DNA fragmentation, cells were plated in 48-well plates (2×10^4 cells/well). To detect PARP-1 cleavage and Bax translocation, 1.5×10^6 cells were plated in 10-cm dishes and cultured overnight in full growth medium. The next morning, the growth medium was replaced by serum-starvation medium and cells were pretreated for 1 h with LPA (1-10 μM), OTP (1-10 μM), GRI977143 (1-10 μM), or vehicle. Caspase activity, DNA fragmentation, PARP-1 cleavage, and Bax translocation were measured 5 h after incubation with 1.7 μM Adriamycin or 24 h after serum withdrawal.
(§2) Apoptotically-challenged cells were washed twice with PBS, and a quantitative DNA fragmentation assay was carried out using a Cell Death Detection ELISA PLUS kit (Roche Diagnostics, Penzberg, Germany) and normalized to protein concentration using the BCA Protein Assay Kit (Thermo Fisher Scientific, Inc.; Rockford, Ill.) as described previously (Valentine et al., 2010). Aliquots of nuclei-free cell lysate were placed in streptavidin-coated wells and incubated with anti-histone-biotin antibody and anti-DNA peroxidase-conjugated antibody for 2 h at room temperature. After the incubation, the sample was removed, and the wells were washed and incubated with 100 μl 2,2′-azino-di[3-ethylbenzthiazolin-sulfonate substrate at room temperature before the absorbance was read at 405 nm. Results were expressed as absorbance at 405 nm/min/mg protein as detailed in our previous report (Ray et al., Mdm2 inhibition induces apoptosis in p53 deficient human colon cancer cells by activating p73- and E2F1-mediated expression of PUMA and Siva-1. Apoptosis (2011) 16(1): 35-44).

[2] = test system: vector- and LPA2-transduced MEF cells; test: Serum withdrawal-induced apoptosis (caspase activity, DNA fragmentation); assay type: cell-based, mouse; conditions: for reduction of apoptotic indicators: vector-transduced MEF
Description: as §1
Caspase-Glow® 3/7, Caspase-Glow® 8 and Caspase-Glow® 9 reagents were purchased from Promega (Madison, Wis.) and used according to the manufacturer's instructions. Briefly, cells were lysed by adding 50 μl of lysis reagent per well, followed by shaking for 30 min at room temperature. […] lysate were transferred to a 96-well white-wall plate, and luminescence was measured using a BioTek® (Winooski, Vt.) plate reader.
as §2

IEC-6 cells = test: TNF-α/CHX-induced apoptosis, DNA fragmentation; assay type: cell-based, rat; conditions: OTP 10 μM, LPA 1 μM, GRI977143 10 μM
Description: Confluent serum-starved IEC-6 cells were treated with or without TNF-α (10 ng/ml)/cycloheximide (CHX) (20 μg/ml) in the presence of OTP (10 μM), GRI977143 (10 μM), or LPA (1 μM) for 3 h. Cells were washed twice with PBS and the quantitative DNA fragmentation assay was carried out as described previously (Valentine et al., (S)—FTY720-vinylphosphonate, an analogue of the immunosuppressive agent FTY720, is a pan-antagonist of sphingosine 1-phosphate GPCR signaling and inhibits autotaxin activity. Cell Signal (2010) 22(10): 1543-1553).
as §2

LPA2 = LPA2 (Homo sapiens, UniProt Q9HBW0); test: LPA receptor-mediated Ca2+ mobilization assay, LPA2 (RH7777 cells stably expressing LPA2); assay type: cell-based; parameters: expressed in transfected cells; conditions: for receptor specificity of activation among established and putative LPA GPCRs: up to 10 μM
Description: Similarity searches were performed separately using each fingerprint to quantitate similarity. Hits meeting the 80% similarity threshold from each search were ranked based on the Tanimoto coefficient measure of similarity to a target molecule NSC12404, and the top 75 unique hits from each fingerprint search were selected for further analysis. […] This selected a diverse subset of 27 compounds for biological evaluation by choosing the middle compounds in each cluster. These 27 compounds were tested in Ca^2+ mobilization assays at a concentration of 10 μM using stable cell lines individually expressing LPA2 and also in vector-transfected control cells. Hits activating LPA2 were further tested using cells expressing the other established and putative LPA GPCRs. […] They arbitrarily selected GRI977143 for further characterization in cell-based assays.
The newly-synthesized compounds were tested for their ability to induce Ca^2+ transients in RH7777 cells stably expressing the LPA2 receptor.
The cells were loaded with Fura-2-acetoxymethyl esther (Fura-2/AM) in Krebs buffer containing 0.01% pluronic acid for 30 min and rinsed with Krebs buffer before measuring Ca^2+ mobilization. The ratio of peak emissions at 510 nm after 2 min of ligand addition was determined for excitation wavelengths of 340 nm/380 nm. All samples were run in quadruplicate. […] The half maximally effective concentration (EC50), and inhibitory constant (Ki) values were calculated by fitting a sigmoid function to dose-response data points using KaleidaGraph software (version 4.1, Synergy Software; […]).
Mouse embryonic fibroblast (MEF) cells were isolated from E13.5 LPA1&2 double knockout (DKO) embryos. MEFs were transduced with empty vector or LPA2-containing lentiviruses and selected with 1.5 μg/ml puromycin. Cells were maintained in Dulbecco's modified Eagle medium (DMEM) supplemented with 10% (V/V) fetal bovine serum (FBS), 2 mM L-glutamine, 100 U/mL penicillin, and 100 μg/mL streptomycin. Serum-free medium contained 0.1% (W/V) BSA in DMEM. The rat intestinal epithelial cell line 6 (IEC-6) was obtained from the American Type Culture Collection (Rockville, Md.) at passage 13; passages 16-21 were used in all experiments. IEC-6 cells were maintained in a humidified 37° C. incubator in an atmosphere of 90% air and 10% CO2. Growth medium consisted of DMEM supplemented with 5% heat inactivated FBS, 10 μg/mL insulin, and 50 μg/mL gentamycin. The composition of the serum-starvation medium was the same as that of the full growth medium except that it contained no FBS. The McArdle rat hepatoma cell line (RH7777) stably expressing LPA2 receptors was a gift from Dr. Fumikazu Okajima (Gunma University, Maebashi, Japan). RH7777 cells stably expressing LPA1 or LPA3 receptors were generated in-house and had been characterized earlier. Wild type and LPA receptor (LPAR) stably transfected RH7777 cells were grown in DMEM supplemented with 10% FBS and 2 mM L-glutamine in the presence of 250 μg/ml G418. Chinese hamster ovary (CHO) cells stably expressing either vector or LPA4 receptor were a kind gift from Dr. Takao Shimizu (Tokyo University; Tokyo, Japan). Cells were cultured in Ham's F12 medium containing 10% FBS, 2 mM L-glutamine, and 350 μg/ml G418. Rat neuroblastoma cells (B103) were transduced with the lentivirus harboring wild type of FLAG-LPA5 and selected with puromycin to establish the stable cell lines. The stable cells were maintained in DMEM supplemented with 10% FBS and 0.4 μg/ml puromycin. GPR87- and P2Y10-expressing CHO cells and vector-transfected control cells were a gift from Dr. Norihisha Fujita (Ritsumeikan University; Shiga, Japan). The highly invasive MM1 rat hepatoma cells (gift from Dr. Michiko Mukai, Osaka University, Japan) were grown in suspension in DMEM supplemented with 10% (V/V) FBS, 2 mM L-glutamine, 100 U/mL penicillin, and 100 μg/mL streptomycin.

[3] = LPA2-transduced MEF, LPA and OTP 3 μM
[4] = agonist, Ca2+ mobilization, read-out: LPA2 EC50

Sequence of LPA2 (Q9HBW0 whole entry): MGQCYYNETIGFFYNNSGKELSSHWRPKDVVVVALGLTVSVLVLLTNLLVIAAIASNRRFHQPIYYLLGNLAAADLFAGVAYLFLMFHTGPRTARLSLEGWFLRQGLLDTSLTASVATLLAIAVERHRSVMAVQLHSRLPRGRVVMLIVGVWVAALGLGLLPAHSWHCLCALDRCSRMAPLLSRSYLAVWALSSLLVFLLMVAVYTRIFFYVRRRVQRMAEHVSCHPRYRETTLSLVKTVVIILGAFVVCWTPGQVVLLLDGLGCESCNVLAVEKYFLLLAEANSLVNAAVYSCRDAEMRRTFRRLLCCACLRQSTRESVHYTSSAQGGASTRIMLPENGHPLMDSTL

Row | Compound | reduction of DNA fragmentation [1, 3] | reduction of apoptotic indicators [2] | DNA fragmentation induced by TNF-α/CHX (IEC-6 cells) | EC50 (LPA2; [4]) | receptor specificity of activation among established and putative LPA GPCRs (LPA2) | reduction of DNA fragmentation ([1]; vector-transduced MEF) | DNA fragmentation ([2]; LPA2-transduced MEF, 10 μM) | reduction of caspase 3, 7, 8, and 9 activation ([2]; LPA2-transduced MEF, 10 μM) | Emax (LPA2; Ca2+ transients, RH7777 cells stably expressing LPA2) | EC50 (LPA2; Ca2+ transients, RH7777 cells stably expressing LPA2, read-out: EC50 (μM) (RH7777))
1 | CCCCCCCC/C=C\CCCCCCCC(=O)OC[C@@H](O)COP(=O)(O)O [LPA 18:1, Lysophosphatidic acid (18:1)] | 35±4% | protected the vector-transduced MEF cells too | significantly reduced |  |  |  |  |  |  | 
2 | O=C(O)c1cc(Cl)c(Cl)cc1C(=O)Nc1ccc2c(c1)C(=O)c1ccccc1-2 [Compound H2L5547924] |  |  |  | 2.8 µM | activated only LPA2 |  |  |  |  | 
3 | O=C(O)c1ccccc1C(=O)Nc1ccc2c(c1)C(=O)c1ccccc1C2=O [Compound H2L5828102] |  |  |  | 3.3 µM | activated only LPA2 |  |  |  |  | 
4 | octadecenyl thiophosphate [OTP] | 32±1% | protected the vector-transduced MEF cells too | completely blocked | 0.336 µM |  |  |  |  |  | 
5 | O=C(O)c1ccccc1C(=O)Nc1ccc2c(c1)C(=O)c1ccccc1-2 [NSC12404] |  |  |  | 9.5 µM |  |  |  |  |  | 
6 | O=C(O)c1ccccc1SCCCN1C(=O)c2cccc3cccc(c23)C1=O [GRI977143] | 41±2% | failed to cause any reduction | significantly reduced | 3.3 µM | activated only LPA2 | 7±1% | attenuated DNA fragmentation | highly effective | 64% | 3.3 µM
